Reference: PubChem BioAssay (NCI)
Where “and” joins values, the source holds several entries; their conditions need not be identical. Equal entries are not always repeated.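 Test compounds were applied to cells in 96-well plates for 48 hours at 5 doses. GI50 = concentration required for 50% inhibition of growth. TGI denotes the concentration required for complete inhibition of growth.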

Key:
Assay in all cases: NCI tumour cell line growth inhibition, 48 h
[1] = test system: SW-620 colon
[2] = test system: MDA-MB-231 breast
[3] = test system: HL-60(TB) leukemia
[4] = test system: OVCAR-3 ovarian
[5] = test system: UACC-257 melanoma
[6] = test system: IGROV1 ovarian
[7] = test system: HOP-92 NSCLC
[8] = test system: A498 renal
[9] = test system: UACC-62 melanoma
[10] = test system: K-562 leukemia

Structure (SMILES)	TGI [1]	TGI [2]	TGI [3]	TGI [4]	TGI [5]	TGI [6]	TGI [7]	TGI [8]	TGI [9]	TGI [10]	GI50 [1]	GI50 [2]	GI50 [4]	GI50 [5]	GI50 [6]	GI50 [7]	GI50 [8]	GI50 [9]	GI50 [10]	GI50 [3]
O=C(O)C1CCCCC1c1c2ccc(=O)c(O)c-2oc2c(O)c(O)ccc12 (configuration not stated)	47.7 µM	38.1 µM	65.2 µM	> 100 µM	> 100 µM	> 100 µM	> 100 µM	> 100 µM	> 100 µM	60.6 µM										
CCOC(=O)c1c(C)n(Cc2ccccc2)c2c1cc(O)c1[nH]c(Cc3ccccc3)nc12	> 60 µM	> 85.9 µM		44 µM	> 70.2 µM	> 57.7 µM	68.8 µM	> 86.1 µM	> 100 µM	> 40 µM	22.1 µM	20.1 µM	11.4 µM	16.2 µM	15.8 µM	20.2 µM	28.5 µM	23.8 µM	0.679 µM	
COc1cc2c(cc1OC)C(Sc1ccc(SC)cc1)c1c(nc(N)c(C#N)c1N)O2 (configuration not stated)	3.97 µM	2.92 µM	3.59 µM	3.06 µM	3.51 µM	3.24 µM	3.86 µM	3.28 µM	2.51 µM	5.59 µM	1.92 µM	1.55 µM	1.62 µM	2.07 µM	1.23 µM	1.96 µM	1.61 µM	1.23 µM	1.74 µM	1.51 µM
CC1=C(/C=C/C(C)=C/C=C/C(C)=C/C=N/NC(=S)NC(=S)N/N=C/C=C(C)/C=C/C=C(C)/C=C/C2=C(C)CCCC2(C)C)C(C)(C)CCC1	5.42 µM and 1.74 µM	11 µM and 10.6 µM	9.22 µM and 4.3 µM	4.92 µM and 1.53 µM	12 µM and 9.82 µM	6.15 µM and 2.87 µM	13.4 µM and 6.76 µM	13 µM and 5.83 µM	6.09 µM and 2.43 µM	8.62 µM and 6.63 µM	1.44 µM and 0.86 µM	3.99 µM and 3.67 µM	1.47 µM and 0.802 µM	5.49 µM and 3.64 µM	1.33 µM and 0.943 µM	5.82 µM and 2.33 µM	6.57 µM and 1.36 µM	1.48 µM and 0.89 µM	1.96 µM and 1.29 µM	1.77 µM and 1 µM
Nc1nc(N)c(C=Nc2ccc(Br)cc2)c(Nc2ccc(Br)cc2)n1	99.1 µM	28.3 µM	49.2 µM	25.3 µM	30.7 µM	46.2 µM		22.4 µM	24.4 µM	8.68 µM	14.1 µM	7.36 µM	11.8 µM	14.7 µM	8.72 µM		10.6 µM	12.1 µM	2.91 µM	15.6 µM
COc1ccc(/C=c2\sc3n(c2=O)C2C(NN=3)N(C)C(=O)N2C)cc1 (configuration not stated)	> 100 µM	> 100 µM	1.96 µM	3.53 µM	> 100 µM	> 100 µM	> 100 µM	1.49 µM	> 100 µM	> 100 µM	0.747 µM	2.77 µM	0.481 µM	> 100 µM	1.32 µM	0.513 µM	0.113 µM	0.578 µM	0.331 µM	0.501 µM
CC(=O)OC1=CC2=CC[C@H]3[C@@H]4CCC(=O)[C@@]4(C)CC(=O)[C@]3(S)[C@@]2(C)CC1	> 100 µM	66.8 µM		69.3 µM	79.6 µM	> 100 µM	62.8 µM	> 100 µM	93.1 µM	76.7 µM										
COc1cccc(-c2ccc3c(c2)C2CCN(Cc4ccccc4)C3C2)c1 (configuration not stated)	20.3 µM	19 µM	21 µM	17 µM	29.1 µM	76.6 µM	20.2 µM	17.6 µM	22 µM		4.59 µM	5.61 µM	4.49 µM	11.2 µM	8.99 µM	3.72 µM	3.77 µM	8.48 µM		5.71 µM
NC1=NC(c2ccc(Cl)cc2)N(c2ccc(S(N)(=O)=O)cc2)C(N)=N1 (configuration not stated)	> 100 µM	> 100 µM		> 100 µM	> 100 µM	> 100 µM	> 100 µM	> 100 µM	> 100 µM	> 100 µM										
COc1cccc(CSCC(=O)O)c1	> 100 µM	> 100 µM		> 100 µM	> 100 µM	> 100 µM	> 100 µM	> 100 µM	> 100 µM	> 100 µM										
S=C(Nc1ccc(N=Nc2ccccc2)cc1)SCc1ccccc1	44.5 µM	28.9 µM		29.4 µM	33.3 µM	32.6 µM	30.4 µM	43.7 µM	31.8 µM	39.9 µM										
Cc1cc(S(=O)(=O)/N=C/N(C)C)c(SC(=O)c2ccc(Cl)cc2)cc1Cl	72.3 µM	69.9 µM	> 100 µM	91.1 µM	> 100 µM	> 100 µM	> 100 µM		> 100 µM	> 100 µM	27.6 µM	25.8 µM	33.3 µM	> 100 µM	38.5 µM	28.9 µM		29.9 µM	46.5 µM	42.5 µM
COC(=O)C1OC2(CCCC3CC32)O[C@H]1C(=O)OC (some centres not stated)	> 100 µM	> 100 µM	> 100 µM	> 100 µM	> 100 µM	> 100 µM	> 100 µM		> 100 µM	> 100 µM										
Cc1cn(C2C=CC(CO)O2)c(=O)[nH]c1=O (configuration not stated)	> 1000 µM	> 1000 µM	> 1000 µM	> 1000 µM	> 1000 µM	> 1000 µM	> 1000 µM		> 1000 µM	> 1000 µM										
Nc1cc(O)ccc1N=Nc1ccc(-c2nc3ccccc3[nH]2)cc1	> 100 µM	> 100 µM	> 100 µM	49.6 µM	> 100 µM	> 100 µM	15.5 µM		> 100 µM	> 100 µM	52.9 µM	68.7 µM	13.7 µM	65.3 µM	19.7 µM	0.67 µM		17.1 µM	23 µM	44.6 µM
COc1ccc(S(=O)(=O)NC2=NCCN2C(=S)SN2CCn3c2nsc3=S)cc1	27.8 µM	36.9 µM		37.4 µM	50.2 µM	> 100 µM	35.4 µM	51.1 µM	27.4 µM	> 100 µM	14.1 µM	15 µM	15.5 µM	16.8 µM	30.6 µM	16.9 µM	19.9 µM	12.2 µM	28.1 µM	
